Where two headings read alike, the source gives them in different places.
How the values were obtained:
[1] = molecular target: T1, purified class A, C and D enzymes (UniProt Q48434); type: biochemical; details: read-out: Ki (CMY-2, NCF); purified CMY-2; nitrocefin reporter substrate
T1 construct: rows headed: Ki (CMY-2, NCF); other: purified CMY-2; nitrocefin reporter substrate

[2] = molecular target: purified class A, C and D enzymes (Escherichia coli, UniProt Q9L5C7); type: biochemical
[3] = molecular target: T2, purified class A, C and D enzymes (UniProt Q6XEC0); type: biochemical; details: read-out: Ki (OXA-48, NCF); purified OXA-48; nitrocefin reporter substrate
T2 construct: rows headed: Ki (OXA-48, NCF); other: purified OXA-48; nitrocefin reporter substrate

[4] = molecular target: T3, purified class A, C and D enzymes (UniProt Q9F663); type: biochemical; details: read-out: Ki (KPC-2, NCF); purified KPC-2; nitrocefin reporter substrate
T3 construct: rows headed: Ki (KPC-2, NCF); other: purified KPC-2; nitrocefin reporter substrate

OXA-48 = OXA-48 (Klebsiella pneumoniae, UniProt Q6XEC0); experiment: Inhibition of purified class D carbapenemase OXA-48 (Ki, carbapenem substrates); type: biochemical
OXA-48, sequence (Q6XEC0 23-265, looked up): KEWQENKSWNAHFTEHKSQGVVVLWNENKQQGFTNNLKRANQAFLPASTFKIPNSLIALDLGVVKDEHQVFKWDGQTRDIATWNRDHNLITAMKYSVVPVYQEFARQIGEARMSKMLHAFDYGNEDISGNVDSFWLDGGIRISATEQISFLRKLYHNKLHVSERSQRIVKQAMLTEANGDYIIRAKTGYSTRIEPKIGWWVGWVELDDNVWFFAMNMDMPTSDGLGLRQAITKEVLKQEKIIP

VIM-1 = molecular target: T4, VIM-1 (Pseudomonas aeruginosa, UniProt A0A0F7KYQ8); experiment: biochemical; details: cleavage of nitrocefin (200 uM) by VIM-1 supernatant
T4 construct: made in house; host or cells: ECM6711 strain carrying pUCP24-VIM-1 plasmid; culture supernatant used unpurified

NDM-1 [5] = molecular target: T5, NDM-1 (Klebsiella pneumoniae, UniProt C7C422); experiment: Inhibition of purified class B carbapenemase NDM-1 (Ki, imipenem substrate); type: biochemical; details: NDM-1, substrate imipenem; read-out: Ki NDM-1, Imipenem
T5 sequence (C7C422 29-270, looked up, species assumed): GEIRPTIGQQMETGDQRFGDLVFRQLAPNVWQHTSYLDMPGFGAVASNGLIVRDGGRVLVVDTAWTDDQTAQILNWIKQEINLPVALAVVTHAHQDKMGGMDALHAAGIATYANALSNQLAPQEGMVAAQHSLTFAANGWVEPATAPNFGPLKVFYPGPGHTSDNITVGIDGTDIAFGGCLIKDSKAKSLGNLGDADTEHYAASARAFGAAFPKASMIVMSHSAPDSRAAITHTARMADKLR

[6] = molecular target: T6, purified class A, C and D enzymes (UniProt P0AD64, L31Q/G234S/E235K, species not given); type: biochemical; details: read-out: Ki (SHV-12, NCF); purified SHV-12; nitrocefin reporter substrate
T6 construct: Ki (SHV-12, NCF); other: purified SHV-12; nitrocefin reporter substrate
T6 sequence (P0AD64 1-286 L31Q/G234S/E235K): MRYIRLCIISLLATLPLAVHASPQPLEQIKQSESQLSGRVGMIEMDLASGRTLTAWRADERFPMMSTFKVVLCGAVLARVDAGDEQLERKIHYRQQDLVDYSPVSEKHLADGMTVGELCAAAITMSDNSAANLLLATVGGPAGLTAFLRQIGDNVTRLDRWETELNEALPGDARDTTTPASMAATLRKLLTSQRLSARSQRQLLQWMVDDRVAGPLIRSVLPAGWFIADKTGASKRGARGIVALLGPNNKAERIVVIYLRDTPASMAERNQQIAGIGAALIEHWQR

NDM-1 [7] = molecular target: T5, NDM-1; experiment: biochemical
[8] = system: KP1074 (KPC-3, SHV-11, TEM); experiment: Carbapenem potentiation against clinical isolate (MIC); type: cell-based, Klebsiella pneumoniae; details: antibiotic alone
[9] = system: KP1004 (KPC-2, TEM-1, SHV-11); experiment: as above; type: cell-based, Klebsiella pneumoniae; details: antibiotic alone
[10] = system: KP1087 (KPC-2, CTX-M-15, SHV-11, TEM-1); experiment: as above; type: cell-based; details: antibiotic alone
AB1144 (NDM-1) = experiment: as above; type: cell-based, Acinetobacter baumannii; details: AB1144; antibiotic alone
[11] = system: KP1084 (KPC-3, SHV-11, TEM-1); experiment: as above; type: cell-based, Klebsiella pneumoniae; details: antibiotic alone
[12] = system: KP1081 (NDM-1, TEM-1, SHV-11, CMY-6, CTX-M-15); experiment: as above; type: cell-based; details: antibiotic alone
KP1014 (VIM-1) = experiment: as above; type: cell-based, Klebsiella pneumoniae; details: antibiotic alone
[13] = system: KP1086 (TEM, SHV, CTX-M-15, OXA-48); experiment: as above; type: cell-based, Klebsiella pneumoniae; details: antibiotic alone
EA1019 (SHV-5, VIM-1) = experiment: as above; type: cell-based, Enterobacter aerogenes; details: EA1019; antibiotic alone
[14] = system: KP1064 (KPC-2, SHV-11, TEM-1); experiment: as above; type: cell-based, Klebsiella pneumoniae; details: antibiotic alone
KP1054 (VIM-1, SHV-11) = experiment: as above; type: cell-based, Klebsiella pneumoniae; details: antibiotic alone
[15] = system: EC1064 (NDM-1, CMY-6, CTX-M-15); experiment: as above; type: cell-based, Escherichia coli; details: antibiotic alone
[16] = purified OXA-48, substrate biapenem, read-out: Ki OXA-48, Biapenem
[17] = cleavage of imipenem (100 uM) by NDM-1, read-out: Ki, Imipenem
[18] = cleavage of tebipenem (100 uM) by NDM-1, read-out: Ki, Tebipenem
[19] = cleavage of biapenem (100 uM) by NDM-1, read-out: Ki, Biapenem

purified class A, C and D enzymes (Escherichia coli, UniProt Q9L5C7), sequence (Q9L5C7 entry or part of it): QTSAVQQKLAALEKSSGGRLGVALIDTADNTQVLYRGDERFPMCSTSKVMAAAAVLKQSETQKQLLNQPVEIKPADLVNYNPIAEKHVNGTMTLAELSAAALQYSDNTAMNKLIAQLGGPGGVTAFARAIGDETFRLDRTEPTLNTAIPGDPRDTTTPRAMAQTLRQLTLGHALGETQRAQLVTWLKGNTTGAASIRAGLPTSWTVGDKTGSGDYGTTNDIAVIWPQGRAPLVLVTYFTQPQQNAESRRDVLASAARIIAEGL

SMILES | Ki [1] [nM] | Ki [3] [nM] | Ki [4] [nM] | Ki (OXA-48; [16]) [nM] | IC50 (VIM-1) [nM] | Ki (NDM-1 [5]) [nM] | Ki [6] [nM] | Ki (NDM-1 [7]; [17]) [nM] | Ki (NDM-1 [7]; [18]) [nM] | Ki (NDM-1 [7]; [19]) [nM] | other results
O=C(O)[C@H]1/C(=C/CO)O[C@@H]2CC(=O)N21 [Clavulanic acid] | > 1000 | > 1000 | > 1000 | – | – | – | – | – | – | – | Ki (CTX-M-14, NCF) [2]: X (key: X: Less than 0.1 μM; Y: 0.1 μM to 1 μM; Z: Greater than 1 μM)
O=C(O)c1cccc2c1OB(O)[C@@H](Sc1nnc[nH]1)C2 [Compound 2, (R)-3-(4H-1,2,4-triazol-3-ylthio)-2-hydroxy-3,4-dihydro-2H-benzo[e][1,2]oxaborinine-8-carboxylic acid] | 100 to 1000 | < 100 | 100 to 1000 | 10 to 100 | < 1000 | < 10 | < 100 | < 10 | 10 to 100 | – | –
NC(=O)CS[C@H]1Cc2cccc(C(=O)O)c2OB1O [Compound 3, (R)-3-(2-amino-2-oxoethylthio)-2-hydroxy-3,4-dihydro-2H-benzo[e][1,2]oxaborinine-8-carboxylic acid] | < 100 | < 100 | < 100 | < 10 | – | > 100 | 100 to 1000 | > 100 | > 100 | > 100 | –
Nc1nnc(S[C@H]2Cc3cccc(C(=O)O)c3OB2O)s1 [Compound 4, (R)-3-(5-amino-1,3,4-thiadiazol-2-ylthio)-2-hydroxy-3,4-dihydro-2H-benzo[e][1,2]oxaborinine-8-carboxylic acid] | < 100 | < 100 | – | < 10 | < 1000 | < 10 | < 100 | < 10 | < 10 | < 10 | Ki (OXA-48; cleavage of biapenem by OXA-48, read-out: Ki, Biapenem): < 10 nM; Ki (OXA-48; cleavage of doripenem by OXA-48, read-out: Ki, Doripenem): 10 to 100 nM; Ki (OXA-48; cleavage of imipenem by OXA-48, read-out: Ki, Imipenem): < 10 nM; Ki (OXA-48; cleavage of meropenem by OXA-48, read-out: Ki, Meropenem): > 100 nM; Ki (OXA-48; cleavage of tebipenem by OXA-48, read-out: Ki, Tebipenem): 10 to 100 nM
CC(=O)Nc1nnc(S[C@H]2Cc3cccc(C(=O)O)c3OB2O)s1 [Compound 7, (R)-3-(5-acetamido-1,3,4-thiadiazol-2-ylthio)-2-hydroxy-3,4-dihydro-2H-benzo[e][1,2]oxaborinine-8-carboxylic acid] | < 100 | < 100 | – | < 10 | < 1000 | 10 to 100 | < 100 | 10 to 100 | – | – | –
NC(=O)CCS[C@H]1Cc2cccc(C(=O)O)c2OB1O [Compound 9, (R)-3-(3-amino-3-oxopropylthio)-2-hydroxy-3,4-dihydro-2H-benzo[e][1,2]oxaborinine-8-carboxylic acid] | < 100 | < 100 | < 100 | 10 to 100 | < 1000 | > 100 | 100 to 1000 | > 100 | – | – | –
O=C(O)c1cccc2c1OB(O)[C@@H](Sc1nccs1)C2 [Compound 11, (R)-2-hydroxy-3-(thiazol-2-ylthio)-3,4-dihydro-2H-benzo[e][1,2]oxaborinine-8-carboxylic acid] | < 100 | < 100 | – | – | ≥ 1000 | > 100 | < 100 | > 100 | – | – | –
Cn1cnnc1S[C@H]1Cc2cccc(C(=O)O)c2OB1O [Compound 15, (R)-2-hydroxy-3-(4-methyl-4H-1,2,4-triazol-3-ylthio)-3,4-dihydro-2H-benzo[e][1,2]oxaborinine-8-carboxylic acid] | < 100 | < 100 | 100 to 1000 | < 10 | < 1000 | – | < 100 | 10 to 100 | – | 10 to 100 | Ki (NDM-1 [7]; cleavage of meropenem (100 uM) by NDM-1, read-out: Ki, Meropenem): 10 to 100 nM
NC(=O)CC1Cc2cccc(C(=O)O)c2OB1O (stereo not shown) [Compound 22, 3-(2-amino-2-oxoethyl)-2-hydroxy-3,4-dihydro-2H-benzo[e][1,2]oxaborinine-8-carboxylic acid] | < 100 | < 100 | < 100 | – | – | – | < 100 | – | – | – | –
C[C@@H](O)[C@H]1C(=O)N2C(C(=O)O)=C(S[C@@H]3CN[C@H](CNS(N)(=O)=O)C3)[C@H](C)[C@H]12 [Doripenem] | – | – | – | – | – | – | – | – | – | – | Carbapenem MIC Alone [8]: Z (MIC of greater than 10 μg/mL); Carbapenem MIC Alone [9]: Y (MIC of 1 μg/mL to 10 μg/mL); Carbapenem MIC Alone [10]: Z (MIC of greater than 10 μg/mL); Carbapenem MIC Alone (AB1144 (NDM-1)): Z (MIC of greater than 10 μg/mL); Carbapenem MIC Alone [11]: Z (MIC of greater than 10 μg/mL); Carbapenem MIC Alone [12]: Z (MIC of greater than 10 μg/mL); Carbapenem MIC Alone (KP1014 (VIM-1)): Z (MIC of greater than 10 μg/mL); Carbapenem MIC Alone [13]: Z (MIC of greater than 10 μg/mL); Carbapenem MIC Alone (EA1019 (SHV-5, VIM-1)): Z (MIC of greater than 10 μg/mL); Carbapenem MIC Alone [14]: Z (MIC of greater than 10 μg/mL); Carbapenem MIC Alone (KP1054 (VIM-1, SHV-11)): Z (MIC of greater than 10 μg/mL); Carbapenem MIC Alone [15]: Z (MIC of greater than 10 μg/mL)

— patent US10206937B2, “Boronic acid derivatives and therapeutic uses thereof” (Qpex Biopharma, Inc., priority 2014, dated 2019)
